These are literature values, as cited in patent US20180221406A1, “THERAPEUTIC COMBINATIONS OF ANTIVIRAL AND ANTI-INFLAMMATORY THERAPIES” (Foresight Biotherapeutics, Inc., priority 2015, published 2018).

Series [1] relates to respiratory syncytial virus (RSV). The note with it: in vivo.
Series [2] concerns acute rhinosinusitis principally of viral origin. The settings on record: in vivo.

As to `C[C@@H]1C[C@H]2[C@@H]3CCC4=CC(=O)C=C[C@]4(C)[C@@]3(F)[C@@H](O)C[C@]2(C)[C@@]1(O)C(=O)CO` [dexamethasone, (8S,9R,10S,11S,13S,14S,16R,17R)-9-fluoro-11,17-dihydroxy-17-(2-hydroxyacetyl)-10,13,16-trimethyl-6,7,8,11,12,14,15,16-octahydrocyclopenta[a]phenanthren-3-one], in series [1], the “Efficacy in bronchiolitis caused by RSV” value is reported as “ineffective”.

With `C[C@]12C=CC(=O)C=C1CC[C@@H]1[C@@H]2[C@@H](O)C[C@@]2(C)[C@H]1CC[C@]2(O)C(=O)CO` [prednisolone], the “Efficacy in uncomplicated acute rhinosinusitis” value in series [2] is “ineffective”.
